Values after ≈ are worked out from the molar mass of the structure shown. Read-outs that look alike come from different tables or passages of the source.
Experiments:
[1] = tested on: Escherichia coli cefazolin-resistant bacteria; assay: survival rate with single amino acids or amino acid combination in synergy with cefazolin; assay type: cell-based
Protocol: Each amino acid in 2 mM compound amino acids was added alone with a corresponding concentration, and through survival rate of bacteria, it was studied improvement on sensitivity of bacteria to antibiotics when each amino acid was in synergy with cefazolin.

[2] = tested on: ampicillin-resistant bacteria (K12-RAMP); assay: survival rate of bacteria, compound amino acids in synergy with ampicillin; assay type: cell-based, Escherichia coli; conditions: ampicillin 2000 μg/mL; second of 8 values, taken as ampicillin without compound amino acids
Protocol: Taking Escherichia coli sensitive bacteria K12 and artificially passaged ampicillin-resistant bacteria (K12-RAMP) as research objects, for the former, concentration of ampicillin was 40 μg/mL, and for the latter, concentration of ampicillin was 2000 μg/mL. It was investigated effects of 0.125, 0.5, 2.0, 8.0, 32, and 64 mM compound amino acids in synergy with antibiotics of the above concentrations on survival rates of sensitive bacteria and corresponding resistant bacteria.

[3] = tested on: Escherichia coli sensitive bacteria K12; assay: survival rate of bacteria by plate count, compound amino acids in synergy with antibiotics; assay type: cell-based; conditions: for survival rate of bacteria: first of 7 values, taken as no compound amino acids
[4] = tested on: balofloxacin-resistant bacteria (K12-RBLFX); assay: survival rate of bacteria, compound amino acids in synergy with balofloxacin; assay type: cell-based, Escherichia coli; conditions: balofloxacin 25 μg/mL; second of 8 values, taken as balofloxacin without compound amino acids
Protocol: Taking Escherichia coli sensitive bacteria K12 and balofloxacin-resistant artificially passaged resistant bacteria (K12-RBLFX) as research objects, for the former, concentration of balofloxacin was 0.2 μg/mL, and for the latter, concentration of balofloxacin was 25 μg/mL. It was investigated effects of compound amino acids of different concentrations in synergy with antibiotics of the above concentrations on survival rates of sensitive bacteria and corresponding resistant bacteria.

[5] = tested on: Escherichia coli strains clinically obtained; assay: MIC against cefazolin (NCCLS method); assay type: cell-based
Excerpt: (§1) Escherichia coli (E. coli) is one of the most common bacteria in clinical practice. 35 Escherichia coli strains clinically obtained were named as Y1 to Y12, Y15 to Y24, Y27, Y28, and Y30 to Y40. The minimum inhibitory concentration (MIC) of these 35 Escherichia coli strains clinically obtained against cefazolin antibiotics was detected according to the NCCLS method, at the same time, Escherichia coli sensitive bacteria K12 and cefazolin-resistant bacteria K12-RCZO were used as controls to determine the MIC.

[6] = tested on: resistant bacteria K12-RCZO; assay type: cell-based, Escherichia coli
Protocol: Preparation of bacterial samples: monoclonal bacteria of sensitive bacteria K12 or resistant bacteria K12-RCZO were picked and inoculated in 50 mL LB liquid medium respectively. After incubation for 17 h at 37° C. and 200 rpm, bacterial cells were collected by centrifugation at 8000 rpm for 4 min; the bacterial cells were washed twice with 0.85% normal saline, suspended in 1×M9 medium, adjusted to OD600 as 0.6, and then dispensed 5 mL into test tubes for subsequent experimental research.
Each of prepared bacterial samples was divided into 4 groups: control group, group of 2 mM 5% compound amino acids added only, and group of cefazolin antibiotics added only (a concentration being 80 μg/mL for sensitive bacteria K12, and a concentration being 2 mg/mL for resistant bacteria K12-RCZO), and group of cefazolin and 2 mM compound amino acids added. Bacteria were incubated at 37° C. and 200 rpm for 6 h, and then 100 μL was taken for doubling dilution, and 10 μL of bacterial solution was taken therefrom for plate count to calculate a survival rate of bacteria; results are shown in FIG. 3.
In order to explore the relationship between compound amino acids improving sensitivity of resistant bacteria to antibiotics and antibiotic concentration, 8 cefazolin concentration gradients (0, 62.5, 125, 250, 500, 1,000, 2,000 and 4,000 μg/mL) were set up; then, 2 mM compound amino acids were added or not added, respectively, after 6 h, plate count method was used to count viable bacteria; under the same antibiotics concentration, survival rates of bacteria when compound amino acids not added (control) and after compound amino acids added were compared.

[7] = tested on: Escherichia coli cefazolin-resistant bacteria (K12-RCZO); assay: MIC against cefazolin; assay type: cell-based
Excerpt: as §1

[8] = tested on: Escherichia coli sensitive bacteria K12; assay: MIC against cefazolin; assay type: cell-based
Excerpt: as §1

Vibrio parahaemolyticus = assay: survival rate, compound amino acids in synergy with cefazolin; assay type: cell-based; conditions: cefazolin 80 μg/mL without compound amino acids, 6 h
Protocol: (§2) Other Gram-negative bacteria such as Vibrio alginolyticus, Vibrio parahaemolyticus, and Pseudomonas aeruginosa, and Gram-positive bacteria Bacillus subtilis were selected as research objects to investigate bactericidal effect of compound amino acids in synergy with cefazolin; among them, concentration of compound amino acids was 2 mM, concentration of cefazolin was 80 μg/mL, and incubation time was 6 h, a relative survival rate of bacteria was calculated.

Pseudomonas aeruginosa = assay: as above; assay type: cell-based; conditions: cefazolin 80 μg/mL without compound amino acids, 6 h
Protocol: as §2

Bacillus subtilis = assay: as above; assay type: cell-based; conditions: cefazolin 80 μg/mL without compound amino acids, 6 h
Protocol: as §2

Vibrio alginolyticus = assay: as above; assay type: cell-based; conditions: cefazolin 80 μg/mL without compound amino acids, 6 h
Protocol: as §2

C[C@H](N)C(=O)O [alanine]
survival rate ([1]; amino acid alone at 404 μM in synergy with cefazolin): 73.6%

CC1(C)S[C@@H]2[C@H](NC(=O)[C@H](N)c3ccccc3)C(=O)N2[C@H]1C(=O)O [ampicillin]
survival rate [2]: 87.2% | survival rate ([3]; ampicillin 40 μg/mL, second of 8 values, taken as ampicillin without compound amino acids): 86.7%

N=C(N)NCCC[C@H](N)C(=O)O [arginine]
survival rate ([1]; amino acid alone at 140 μM in synergy with cefazolin): 97.3%

N[C@@H](CC(=O)O)C(=O)O [aspartate]
survival rate ([1]; amino acid alone at 56 μM in synergy with cefazolin): 94.5%

CNC1CCCN(c2c(F)cc3c(=O)c(C(=O)O)cn(C4CC4)c3c2OC)C1 (centres unmarked) [balofloxacin]
survival rate [4]: 90.2%

Cc1nnc(SCC2=C(C(=O)O)N3C(=O)[C@@H](NC(=O)Cn4cnnn4)[C@H]3SC2)s1 [cefazolin]
MIC ([5]; 37% of the remaining clinical Escherichia coli resistant bacteria): > 640 µg/mL | MIC ([5]; clinical strain Y1): 40 µg/mL (≈ 88 µM) | MIC ([5]; clinical strain Y3): 2.5 µg/mL (≈ 5.5 µM) | MIC ([5]; clinical strain Y5): 10 µg/mL (≈ 22 µM) | MIC ([5]; clinical strain Y6): 40 µg/mL (≈ 88 µM) | MIC ([5]; clinical strain Y7): 2.5 µg/mL (≈ 5.5 µM) | MIC ([5]; clinical strain Y8): 5 µg/mL (≈ 11 µM) | MIC ([5]; clinical strain Y11): 10 µg/mL (≈ 22 µM) | MIC ([5]; clinical strain Y12): 40 µg/mL (≈ 88 µM) | MIC ([5]; clinical strain Y15): 5 µg/mL (≈ 11 µM) | MIC ([5]; clinical strain Y16): 5 µg/mL (≈ 11 µM) | MIC ([5]; clinical strain Y17): 10 µg/mL (≈ 22 µM) | MIC ([5]; clinical strain Y18): 20 µg/mL (≈ 44 µM) | MIC ([5]; clinical strain Y19): 5 µg/mL (≈ 11 µM) | MIC ([5]; clinical strain Y20): 20 µg/mL (≈ 44 µM) | MIC ([5]; clinical strain Y21): 20 µg/mL (≈ 44 µM) | MIC ([5]; clinical strain Y22): 5 µg/mL (≈ 11 µM) | MIC ([5]; clinical strain Y23): 2.5 µg/mL (≈ 5.5 µM) | MIC ([5]; clinical strain Y24): 20 µg/mL (≈ 44 µM) | MIC ([5]; clinical strain Y28): 5120 µg/mL (≈ 11300 µM) | MIC ([5]; clinical strain Y32): 5120 µg/mL (≈ 11300 µM) | MIC ([5]; clinical strain Y36): 5120 µg/mL (≈ 11300 µM) | MIC ([5]; clinical strain Y40): 20 µg/mL (≈ 44 µM) | survival rate of bacteria ([6]; as printed in b79: K12-RCZO, compound amino acids 0 mM, 1000 μg/mL cefazolin (results of FIG. 4)): 89.6% | survival rate of bacteria ([6]; cefazolin 62.5 μg/mL, compound amino acids not added, 6 h): 87.5% | survival rate of bacteria ([6]; cefazolin 125 μg/mL, compound amino acids not added, 6 h): 96.9% | survival rate of bacteria ([6]; cefazolin 250 μg/mL, compound amino acids not added, 6 h): 83.3% | survival rate of bacteria ([6]; cefazolin 500 μg/mL, compound amino acids not added, 6 h): 78.6% | survival rate ([6]; cefazolin 1,000 μg/mL, compound amino acids 0 mM, 6 h): 92.6% | survival rate of bacteria ([6]; cefazolin 1,000 μg/mL, compound amino acids not added, 6 h): 83.3% | survival rate of bacteria ([6]; cefazolin 2,000 μg/mL, compound amino acids not added, 6 h): 84.4% | survival rate of bacteria ([6]; cefazolin 4,000 μg/mL, compound amino acids not added, 6 h): 69.8% | survival rate of bacteria ([1]; M9 control group with antibiotics added (1 mg/mL cefazolin), 6 h): 45.9% | survival rate of bacteria ([1]; only cefazolin is added): 85.04% | MIC ([7]; Escherichia coli, read-out: MIC against cefazolin): 80 µg/mL (≈ 176 µM) | MIC relative to that of the starting strain ([7]; K12-RCZO vs K12): 64 times | MIC [8]: 1.25 µg/mL (≈ 2.75 µM) | survival rate (Vibrio parahaemolyticus): 79.3% | survival rate (Pseudomonas aeruginosa): 85.9% | survival rate (Bacillus subtilis): 58.0% | survival rate (Vibrio alginolyticus): 62.1% | survival rate ([3]; cefazolin 80 μg/mL, compound amino acids 0 mM, 6 h): 89.6%

CO/N=C(\C(=O)N[C@@H]1C(=O)N2C(C(=O)O)=C(CSC(=O)c3ccco3)CS[C@H]12)c1csc(N)n1 [ceftiofur]
survival rate of bacteria ([3]; ceftiofur 200 μg/mL, 6 h): 61.9%

CO/N=C(\C(=O)N[C@@H]1C(=O)N2C(C(=O)O)=C(CSc3nc(=O)c(=O)[nH]n3C)CS[C@H]12)c1csc(N)n1 [ceftriaxone]
survival rate of bacteria ([3]; ceftriaxone 10 μg/mL, 6 h): 73.1%

N[C@@H](CSSC[C@H](N)C(=O)O)C(=O)O [cystine]
survival rate ([1]; amino acid alone at 4 μM in synergy with cefazolin): 94.1%

N[C@@H](CCC(=O)O)C(=O)O [glutamic acid]
survival rate ([1]; amino acid alone at 85 μM in synergy with cefazolin): 94.5%

NCC(=O)O [glycine]
survival rate ([1]; amino acid alone at 233 μM in synergy with cefazolin): 71.4%

N[C@@H](Cc1c[nH]cn1)C(=O)O [histidine]
survival rate ([1]; amino acid alone at 96 μM in synergy with cefazolin): 97.6%

CC[C@H](C)[C@H](N)C(=O)O [isoleucine]
survival rate ([1]; amino acid alone at 95 μM in synergy with cefazolin): 69.6%

CC(C)C[C@H](N)C(=O)O [leucine]
survival rate ([1]; amino acid alone at 129 μM in synergy with cefazolin): 75.7%

CC(=O)O.NCCCC[C@H](N)C(=O)O [lysine acetate]
survival rate ([1]; amino acid alone at 133 μM in synergy with cefazolin): 68.6%

CSCC[C@H](N)C(=O)O [methionine]
survival rate ([1]; amino acid alone at 83 μM in synergy with cefazolin): 91.5%

N[C@@H](Cc1ccccc1)C(=O)O [phenylalanine]
survival rate ([1]; amino acid alone at 106 μM in synergy with cefazolin): 98.8%

O=C(O)[C@@H]1CCCN1 [proline]
survival rate ([1]; amino acid alone at 126 μM in synergy with cefazolin): 85.4%

N[C@@H](CO)C(=O)O [serine]
survival rate ([1]; amino acid alone at 47 μM in synergy with cefazolin): 67.9%

C[C@@H](O)[C@H](N)C(=O)O [threonine]
survival rate ([1]; amino acid alone at 105 μM in synergy with cefazolin): 59.4%

N[C@@H](Cc1c[nH]c2ccccc12)C(=O)O [tryptophan]
survival rate ([1]; amino acid alone at 20 μM in synergy with cefazolin): 67.4%

N[C@@H](Cc1ccc(O)cc1)C(=O)O [tyrosine]
survival rate ([1]; amino acid alone at 5 μM in synergy with cefazolin): 80.5%

CC(C)[C@H](N)C(=O)O [valine]
survival rate ([1]; amino acid alone at 136 μM in synergy with cefazolin): 78.8%
